Values after ≈ are worked out from the molar mass of the structure shown.
Assays:
[1] = test system: Candida albicans ATCC 90028; experiment: Antimicrobial assay, C. albicans; assay type: cell-based; conditions: ATCC90028, read-out: IC50, C. albicans
[2] = test system: Cryptococcus neoformans ATCC 90113; experiment: Antimicrobial assay, C. neoformans; assay type: cell-based
[3] = test system: methicillin-resistant Staphylococcus aureus ATCC 43300; experiment: Antimicrobial assay, MRSA; assay type: cell-based; conditions: ATCC43300|MRSA; for MBC: read-out: MBC, MRSA; for MIC: read-out: MIC, MRSA
[4] = test system: Aspergillus fumigatus ATCC 90906; experiment: Antimicrobial assay, A. fumigatus; assay type: cell-based; conditions: ATCC90906, read-out: IC50, A. fumigatus
[5] = test system: L. donovani promastigotes; experiment: Antileishmanial assay; assay type: cell-based; conditions: Leishmania donovani, 48 h, read-out: L. donovani IC50
[6] = test system: Mycobacterium intracellulare ATCC 23068; experiment: Antimicrobial assay, M. intracellulare; assay type: cell-based; conditions: for MIC: ATCC23068, read-out: MIC, M. intracellulare
[7] = test system: P. falciparum Sierra Leone D6 (chloroquine-sensitive); experiment: Antimalarial/parasite LDH assay, D6 clone; assay type: cell-based; conditions: Plasmodium falciparum, D6, 72 h, read-out: P. falciparum D6 IC50
[8] = test system: KB (human epidermoid carcinoma); experiment: Cytotoxicity assay, KB; assay type: cell-based; conditions: 48 h, read-out: IC50 KB
[9] = test system: P. berghei (NK-65 strain); experiment: In vivo antimalarial assay
[10] = test system: SK-MEL (human malignant melanoma); experiment: Cytotoxicity assay, SK-MEL; assay type: cell-based; conditions: 48 h, read-out: IC50 SK-MEL
RBC = experiment: Hemolytic activity; conditions: from IC50 (RBC lysis)

In the case of `C[C@@H]1N[C@H](CCCCCCCCCCC2=C[C@@H](CCCCCCCCCC[C@@H]3CC[C@@H](O)[C@H](C)N3)[C@@H]3CCCN3C2)CC[C@H]1O.Cl.Cl` [Compound 7, Prosopilosine dihydrochloride], the IC50 [1] is reported as > 20 µg/mL, the MFC ([2]; ATCC90113, read-out: MFC, C. neoformans) is reported as 5 µg/mL and the MIC ([2]; ATCC90113, read-out: MIC, C. neoformans) is reported as 5 µg/mL. The MBC [3] was 5 µg/mL, the MIC [3] was 5 µg/mL and the IC50 [4] was > 20 µg/mL. The IC50 [5] was 3.1 µg/mL.

With `C[C@@H]1N[C@H](CCCCCCCCCCc2cc(CCCCCCCCCC[C@@H]3CC[C@@H](O)[C@H](C)N3)c3[n+](c2)CCC3)CC[C@H]1O.[Cl-]` [Compound 6, Prosopilosidine dihydrochloride] the MBC [3] was 5 µg/mL and the IC50 [4] was > 20 µg/mL.

For `C[C@H]1N[C@@H](CCCCCCCCCCC2=C[C@@H](CCCCCCCCCC[C@H]3CC[C@@H](O)[C@@H](C)N3)[C@@H]3CCCN3C2)CC[C@H]1O` [Compound 5, juliprosopine], the IC50 [1] was > 20 µg/mL, the MBC ([6]; ATCC23068, read-out: MBC, M. intracellulare) was 20 µg/mL (≈ 31.7 µM) and the MIC [6] was 20 µg/mL (≈ 31.7 µM).

In the case of `C[C@@H]1N[C@H](CCCCCCCCCCc2cc(CCCCCCCCCC[C@H]3CC[C@@H](O)[C@@H](C)N3)c[n+]3c2CCC3)CC[C@H]1O` [Compound 4, Isoprosopilosidine], the IC50 [1] is reported as > 20 µg/mL, the IC50 [7] is reported as 0.042 µg/mL and the IC50 [5] is reported as 0.8 µg/mL.

With `C[C@@H]1[C@H](O)[C@@H](C)/C=C/C=C/C=C/C=C/C=C/C=C/C=C/[C@H](O[C@@H]2O[C@H](C)[C@@H](O)[C@H](N)[C@@H]2O)C[C@@H]2O[C@](O)(C[C@@H](O)C[C@@H](O)[C@H](O)CC[C@@H](O)C[C@@H](O)CC(=O)O[C@H]1C)C[C@H](O)[C@H]2C(=O)O` [Amphotericin B] the IC50 [8] was > 25 µg/mL.

Molecule `O=C(O)c1cn(C2CC2)c2cc(N3CCNCC3)c(F)cc2c1=O` [Ciprofloxacin, reference compound] has an IC50 ([6]; ATCC23068, read-out: IC50, M. intracellulare) of 0.25 µg/mL (≈ 0.754 µM).

Molecule `CCN(CC)CCCC(C)Nc1ccnc2cc(Cl)ccc12` (stereo not drawn) [Chloroquine, chloroquine, reference compound] has an IC50 [7] of 0.017 µg/mL (≈ 0.0531 µM).

With `CCO[C@H]1O[C@@H]2O[C@@]3(C)CC[C@H]4[C@H](C)CC[C@@H]([C@H]1C)[C@@]24OO3` [β-Arteether, β-arteether, reference compound] the “Cure (mice without parasitemia till day 28/total mice in group)” value ([9]; 10 mg/kg × 3 days) was 5/5.

Work on `C[C@H]1N[C@@H](CCCCCCCCCCC2=C[C@@H](CCCCCCCCCC[C@@H]3CC[C@H](O)[C@@H](C)N3)[C@@H]3CCCN3C2)CC[C@H]1O.Cl.Cl` [Compound 8, Isoprosopilosine dihydrochloride] yielded an MBC [3] of 5 µg/mL and an MIC [3] of 5 µg/mL.

In the case of `C[C@H]1N[C@@H](CCCCCCCCCCC2=C[C@@H](CCCCCCCCCC[C@@H]3CC[C@H](O)[C@@H](C)N3)[C@@H]3CCCN3C2)CC[C@H]1O` [Compound 3, Isoprosopilosine], the IC50 [1] is reported as > 20 µg/mL, the MIC [6] is reported as 5 µg/mL (≈ 7.94 µM) and the IC50 [10] is reported as < 1.1 µg/mL.

With `C[C@@H]1N[C@H](CCCCCCCCCCc2cc(CCCCCCCCCC[C@@H]3CC[C@H](O)[C@@H](C)N3)c3[n+](c2)CCC3)CC[C@H]1O.[Cl-]` [Compound 1] the MIC [6] was 2.5 µg/mL, the “Cure (mice without parasitemia till day 28/total mice in group)” value ([9]; 1 mg/kg × 3 days, ip) was 0/5 and the “Cure (mice without parasitemia till day 28/total mice in group)” value ([9]; 2 mg/kg × 3 days, ip) was 0/5. The “toxicity observed due to treatment” value ([9]; 1 and 2 mg/Kg/day for 3 days, ip, mice) was “no significant toxicity” and the “fold less toxic than amphotericin B in regard to hemolytic activity” value (RBC) was > 4 fold.

`C[C@@H]1N[C@H](CCCCCCCCCCC2=C[C@@H](CCCCCCCCCC[C@@H]3CC[C@@H](O)[C@H](C)N3)[C@@H]3CCCN3C2)CC[C@H]1O` [Compound 2, 6,8-bis-[(2R,5R,6R)-5-hydroxy-6-methylpiperidin-2-yl]decyl-[8R,8aS]-6,7-dehydroindolizidine] was tested, and the MBC [3] was 10 µg/mL (≈ 15.9 µM), the MIC [3] was 2.5 µg/mL (≈ 3.97 µM) and the MIC [6] was 5 µg/mL (≈ 7.94 µM). The IC50 [10] was < 1.1 µg/mL.
